Reference: patent US8889876B2, “Histone deacetylase inhibitors and uses thereof” (Jiangsu Hengyi Pharmaceutical Co., Ltd., priority 2008, dated 2014)

Tests used:
Type in all cases: cell-based
[1] = tested on: PC-3 human prostate cancer; experiment: CCK-8 proliferation inhibition, PC-3; conditions: Homo sapiens, CCK-8 method; for inhibition at 10 µM: compound concentration 10 μM; for inhibition at 100 µM: compound concentration 100 μM
Protocol: (§1) Detecting the inhibition rate of the compound concentrations of 100 μM and 10 μM to Hut78 T-cell Leukemia cell, Jurkat E6-1 human T-cell lymphoma, PANC-1 human pancreatic cancer cells, A549 human lung cancer cells, K562 human chronic myeloid leukemia cells, Hep3B2.1-7 human liver cancer cells, MDA-MB-435s human breast cancer cells, Colo320 human rectal cancer cells and PC-3 human prostate cancer using CCK-8 method.

[2] = tested on: A549 human lung cancer cells; experiment: CCK-8 proliferation inhibition, A549; conditions: Homo sapiens, A549, CCK-8 method; for inhibition at 10 µM: compound concentration 10 μM; for inhibition at 100 µM: compound concentration 100 μM
Protocol: as §1

[3] = tested on: MDA-MB-435s human breast cancer cells; experiment: CCK-8 proliferation inhibition, MDA-MB-435s; conditions: Homo sapiens, MDA-MB-435S, CCK-8 method; for inhibition at 10 µM: compound concentration 10 μM; for inhibition at 100 µM: compound concentration 100 μM
Protocol: as §1

[4] = tested on: K562 human chronic myeloid leukemia cells; experiment: CCK-8 proliferation inhibition, K562; conditions: Homo sapiens; for inhibition at 10 µM: K562, 10 μM; for inhibition at 100 µM: K562, 100 μM
Protocol: as §1

[5] = tested on: Colo320 human rectal cancer cells; experiment: CCK-8 proliferation inhibition, Colo320; conditions: Homo sapiens, COLO 320, CCK-8 method; for inhibition at 10 µM: compound concentration 10 μM; for inhibition at 100 µM: compound concentration 100 μM
Protocol: as §1

[6] = tested on: PANC-1 human pancreatic cancer cells; experiment: CCK-8 proliferation inhibition, PANC-1; conditions: Homo sapiens; for inhibition at 10 µM: PANC-1, 10 μM; for inhibition at 100 µM: PANC-1, 100 μM
Protocol: as §1

[7] = tested on: Jurkat E6-1 human T-cell lymphoma; experiment: CCK-8 proliferation inhibition, Jurkat E6-1; conditions: Homo sapiens; for inhibition at 10 µM: Jurkat E6.1, 10 μM; for inhibition at 100 µM: Jurkat E6.1, 100 μM
Protocol: as §1

[8] = tested on: Hep3B2.1-7 human liver cancer cells; experiment: CCK-8 proliferation inhibition, Hep3B2.1-7; conditions: Homo sapiens, Hep3B, CCK-8 method; for inhibition at 10 µM: compound concentration 10 μM; for inhibition at 100 µM: compound concentration 100 μM
Protocol: as §1

[9] = tested on: Hut78 T-cell Leukemia cell; experiment: CCK-8 proliferation inhibition, Hut78; conditions: Homo sapiens, read-out: Hut-78 (inhibition %); for inhibition at 10 µM: HuT78, 10 μM; for inhibition at 100 µM: HuT78, 100 μM
Protocol: as §1

Row | Structure (SMILES) | inhibition at 10 µM [1] | inhibition at 100 µM [1] | inhibition at 10 µM [2] | inhibition at 100 µM [2] | inhibition at 10 µM [3] | inhibition at 100 µM [3] | inhibition at 10 µM [4] | inhibition at 100 µM [4] | inhibition at 10 µM [5] | inhibition at 100 µM [5] | inhibition at 10 µM [6] | inhibition at 100 µM [6] | inhibition at 10 µM [7] | inhibition at 100 µM [7] | inhibition at 10 µM [8] | inhibition at 100 µM [8] | inhibition at 10 µM [9] | inhibition at 100 µM [9]
1 | Nc1ncccc1NC(=O)c1ccc(CNC(=O)CCc2ccccc2)cc1 [V-48, N-(2-amino-3-pyridyl)-4-[(3-phenylpropionyl)aminomethyl]benzamide] | -16.4% | 14.8% | 3.9% | 9.8% | 10% | 26.6% | 20% | 57.2% | 2.9% | 17.9% | -2.2% | -1.8% | 9.7% | 61.9% | -14% | 20.5% | -0.4% | 47.4%
2 | Nc1ncccc1NC(=O)c1ccc(CNC(=O)OCc2ccc([N+](=O)[O-])cc2)cc1 [V-15, N-(2-amino-3-pyridyl)-4-[(4-nitrobenzyloxyacyl)aminomethyl]benzamide] | 21.9% | 18.8% | 15.3% | 12.9% | 30.6% | 42.4% | 20.4% | 32.3% | 2.6% | 4.1% | 24% | 21.1% | 18.6% | 26.3% | 22.3% | 43% | 28.5% | 24.6%
3 | Nc1ncccc1NC(=O)c1ccc(CNC(=O)/C=C/c2ccc3ccccc3c2)cc1 [V-46, N-(2-amino-3-pyridyl)-4-(2-naphthylacryloylaminomethyl)benzamide] | -1.7% | -2.4% | 7.7% | 4.1% | 16.4% | 4.1% | 27.3% | 18.9% | 13.7% | -9% | 8.1% | 0.4% | 14.8% | 1.9% | 17.5% | -5% | 16.4% | 13.4%
4 | Nc1cnccc1NC(=O)c1ccc(CNC(=O)OCc2ccc(F)cc2)cc1 [V-20] | 22.9% | 84.4% | -17.6% | 72.2% | 19.5% | 63.9% | 34% | 88.7% | -14.3% | 82.7% | -2.8% | 15.7% | 23.8% | 96.5% | 7.2% | 79.3% | 22% | 91.1%
5 | Nc1ncccc1NC(=O)c1ccc(CNC(=O)CCc2ccc(F)cc2)cc1 [V-60, N-(2-amino-3-pyridyl)-4-[3-(4-fluorophenyl)propionylaminomethyl]benzamide] | 1% | 8.1% | 3.7% | 12.2% | -7.8% | -3.4% | 14.6% | 42.7% | -5.4% | 2.3% | 27.3% | 26.1% | 11% | 33.3% | 9.9% | 31.7% | 11.8% | 28.5%
6 | Cc1ccc(CCC(=O)NCc2ccc(C(=O)Nc3cccnc3N)cc2)cc1 [V-50, N-(2-amino-3-pyridyl)-4-[3-(4-methylphenyl)propionylaminomethyl]benzamide] | 5.5% | -3.8% | 8.6% | 14.2% | 14.7% | 36.9% | 23.8% | 75.7% | 6.8% | 27.4% | 10.2% | 12.9% | 8.9% | 75.9% | -0.5% | 23.5% | 0.4% | 46.9%
